PubChem BioAssay (NCI)
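Assay format: 96-well plates, 48-hour exposure. GI50 marks 50% less growth. TGI: concentration producing complete growth inhibition.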 Where a SMILES comes first, the peptide text is derived from it. [ ]: non-standard residue; d: D form. The star is where a group is joined. NMeF = CN[C@@H](Cc1ccccc1)C(=O)O; NMeV = CN[C@H](C(=O)O)C(C)C; Boc = CC(C)(C)OC(=O)*; OBn = c1ccc(CO*)cc1

What was measured:
Assay in all cases: NCI tumour cell line growth inhibition, 48 h
A549 NSCLC = system: A549 NSCLC
BT-549 breast = system: BT-549 breast
HT29 colon = system: HT29 colon
MDA-MB-231 breast = system: MDA-MB-231 breast
NCI-H522 lung = system: NCI-H522 lung
PC-3 prostate = system: PC-3 prostate
SF-539 CNS = system: SF-539 CNS
SK-MEL-28 melanoma = system: SK-MEL-28 melanoma
T-47D breast = system: T-47D breast
U251 CNS = system: U251 CNS

Row | SMILES | GI50 (A549 NSCLC) | TGI (A549 NSCLC) | GI50 (BT-549 breast) | TGI (BT-549 breast) | GI50 (HT29 colon) | TGI (HT29 colon) | GI50 (MDA-MB-231 breast) | TGI (MDA-MB-231 breast) | GI50 (NCI-H522 lung) | TGI (NCI-H522 lung) | GI50 (PC-3 prostate) | TGI (PC-3 prostate) | GI50 (SF-539 CNS) | TGI (SF-539 CNS) | GI50 (SK-MEL-28 melanoma) | TGI (SK-MEL-28 melanoma) | GI50 (T-47D breast) | TGI (T-47D breast) | GI50 (U251 CNS) | TGI (U251 CNS)
1 | COc1cccc(Cn2c(-c3nonc3NC(C)=O)nc3ccccc32)c1 | 5.81 µM | > 100 µM | 8.79 µM | > 100 µM | 3.28 µM | > 100 µM | 3.62 µM | > 100 µM | 2.95 µM | 90.3 µM | 2.83 µM | > 100 µM | 3.65 µM | > 100 µM | 6.17 µM | > 100 µM | 6.17 µM | > 100 µM | 3.94 µM | 35.5 µM
2 | CCC(c1ccc2cc(O)ccc2c1)C(C)(C)C(=O)O (stereo unspecified) | – | > 100 µM | – | > 100 µM | – | > 100 µM | – | > 100 µM | – | > 100 µM | – | > 100 µM | – | > 100 µM | – | > 100 µM | – | > 100 µM | – | > 100 µM
3 | O=C1c2cc([N+](=O)[O-])cc3cc([N+](=O)[O-])cc(c23)C(=O)N1CCCNCCNCCCN1C(=O)c2cc([N+](=O)[O-])cc3cc([N+](=O)[O-])cc(c23)C1=O | – | 3.6 µM | – | 5.51 µM | – | 5.25 µM | – | 3.45 µM | – | 1.13 µM | – | 7.87 µM | – | 1.26 µM | – | 2.11 µM | – | 6.72 µM | – | 3.49 µM
4 | O=C1/C(=C/c2ccccc2F)CN(C(=O)C(Cl)Cl)C/C1=C\c1ccccc1F | 1.38 µM | 3.32 µM | 0.422 µM | 1.44 µM | 0.271 µM | 1.06 µM | 0.404 µM | 1.58 µM | 0.281 µM | 1.06 µM | 0.296 µM | 1.08 µM | 0.431 µM | 1.78 µM | 0.477 µM | 1.47 µM | 0.71 µM | 3.97 µM | 0.213 µM | 0.665 µM
5 | CC(C)[C@@H](C(=O)N1CCC[C@H]1C(=O)OCc1ccccc1)N(C)C(=O)[C@H](C(C)C)N(C)C(=O)[C@H](Cc1ccccc1)N(C)C(=O)[C@H](NC(=O)OC(C)(C)C)C(C)C (Boc-[dV][NMeF][NMeV][NMeV]P-OBn) | > 100 µM | > 100 µM | – | > 50 µM | – | > 100 µM | – | > 50 µM | – | > 50 µM | – | > 50 µM | – | > 100 µM | – | > 100 µM | – | > 50 µM | – | > 100 µM
6 | Cc1ccc(-c2nc(N)c(C#N)c3c2CCOc2c-3ccc3ccccc23)cc1 | 1.2 µM | 22.9 µM | 3.85 µM | 54 µM | 0.387 µM | 54.1 µM | 0.07 µM | 0.626 µM | 0.507 µM | > 100 µM | 0.186 µM | 7.51 µM | 0.457 µM | 3.48 µM | 2.48 µM | > 100 µM | 0.954 µM | 45.9 µM | 0.222 µM | 4.25 µM
7 | OCC1OC2OC3C(CO)OC(OC4C(CO)OC(OC5C(CO)OC(OC6C(CO)OC(OC7C(CO)OC(OC1C(O)C2O)C(O)C7O)C(O)C6O)C(O)C5O)C(O)C4O)C(O)C3O (stereo unspecified) (tested in a mixture with another compound) | – | > 100 µM | – | > 100 µM | – | > 100 µM | – | > 100 µM | – | > 100 µM | – | > 100 µM | – | > 78.8 µM | – | > 100 µM | – | > 100 µM | – | > 100 µM
8 | CC(C)n1c(=O)n(C)c2cnc3cc(F)c(-c4ccc(OCCCN5CCCCC5)nc4)cc3c21 | 16.3 µM | 63.9 µM | 10.1 µM | 28.4 µM | 8.5 µM | 37.2 µM | 11.4 µM | 27.6 µM | 18.6 µM | 49.6 µM | 6.94 µM | 37.1 µM | 8.38 µM | 22.9 µM | 13.5 µM | 32.4 µM | 9.65 µM | 38.8 µM | 13.5 µM | 37.6 µM
9 | O=C(CN1C(=O)S/C(=C\C(Cl)=C\c2ccccc2)C1=O)NCCc1ccc(O)cc1 | 3.1 µM | > 100 µM | 2.03 µM | 4.9 µM | 3.02 µM | 12.3 µM | 2.09 µM | 6.52 µM | 1.96 µM | 5.77 µM | 1.96 µM | 5.12 µM | 1.74 µM | 3.63 µM | 1.73 µM | 3.44 µM | 2.47 µM | 8.65 µM | 2 µM | 5.16 µM
10 | COc1nc(N)nc2c1ncn2[C@@H]1O[C@H](CO)[C@@H](O)[C@@H]1O | > 100 µM | > 100 µM | > 100 µM | > 100 µM | > 100 µM | > 100 µM | > 100 µM | > 100 µM | > 100 µM | > 100 µM | > 100 µM | > 100 µM | > 100 µM | > 100 µM | > 100 µM | > 100 µM | > 100 µM | > 100 µM | > 100 µM | > 100 µM
11 | O=C(O)CP(=O)(O)O | – | > 100 µM | – | > 100 µM | – | > 100 µM | – | > 100 µM | – | > 100 µM | – | > 100 µM | – | > 100 µM | – | > 100 µM | – | > 100 µM | – | > 100 µM
12 | COc1cc(/C=C2\C(=O)N(c3ccccc3)c3ccccc32)cc(OC)c1OC | 11.3 µM | 40.9 µM | 15.5 µM | 47.4 µM | 3.7 µM | 13.9 µM | 4.12 µM | 26.1 µM | 6.31 µM | 23.3 µM | 3.13 µM | 16.1 µM | 5.38 µM | 91.7 µM | 4.91 µM | 18.4 µM | 5.02 µM | > 100 µM | 3.87 µM | 15.3 µM
13 | COc1ccc(CCN2CCC(Nc3nc4ccccc4n3Cc3ccc(F)cc3)CC2)cc1 | 1.82 µM | 3.75 µM | 1.6 µM | 2.96 µM | 0.591 µM | 2.36 µM | 1.45 µM | 2.88 µM | 2.37 µM | 4.91 µM | 1.8 µM | 5.66 µM | 1.77 µM | 3.25 µM | 1.61 µM | 3.03 µM | 1.97 µM | 4.38 µM | 1.47 µM | 2.89 µM
14 | Clc1ccc(C2=NN[C@H](c3cn(-c4ccccc4)nc3-c3ccccc3)C2)cc1 | 3.37 µM | 14.4 µM | 10.3 µM | 28.4 µM | 5.76 µM | 55.8 µM | 5.91 µM | 24.9 µM | 4.64 µM | 28.4 µM | 3.68 µM | 14.6 µM | 8.95 µM | 23 µM | 2.65 µM | 6.69 µM | 3.91 µM | 18.8 µM | 3.17 µM | 11.7 µM
